Tests used:
[1] = Stability studies on free base Compound 1 and amorphous diHCl salt; format: physicochemical; details: 40° C.
Description: Stability studies were performed on the free base Compound 1 and an amorphous diHCl salt of Compound 1. This salt was formed by dissolving the compound in aqueous solution, adjusting the pH of the solution to approximately 4.2, followed by lyophilization. The free base degraded in less than one month at 40° C., and approximately three months at 4° C. In contrast, the diHCl salt of Compound 1 was stable for 6 months at 40° C., and for two years at room temperature (25° C.).

[2] = Relative stabilities of the polymorphic forms (maturation / slurry, XRPD); format: physicochemical
Description: The relative stabilities of the polymorphic forms of Compound 1 were analyzed. For example, form 1 tosylate salt was subjected to a maturation experiment for 24 hours in either IPA or methyl pentanone, seeded with either form 2 or form 3 tosylate salt. […] A slurry of a 50:50 mixture of form 1 and form 3 were analyzed in IPA for 18 hours at 0° C., 25° C., 40° C., and 60° C., as shown in FIG. 7.

Row | time for which the substance was stable [1] | change of polymorphic form in slurry ([2]; 50:50 mixture of form 1 and form 3 in IPA, 18 hours at 0° C., 25° C., 40° C., 60° C.) | change of polymorphic form on maturation ([2]; 24 hours in IPA or methyl pentanone, seeded with form 2 or form 3 tosylate salt) | Structure (SMILES)
1 | 6 months |  |  | CN(C)c1cc(CNCC(C)(C)C)c(O)c2c1CC1CC3C(N(C)C)C(O)=C(C(N)=O)C(=O)C3(O)C(O)=C1C2=O.Cl.Cl (stereo not drawn) [diHCl salt of Compound 1]
2 |  | no change of form 1 into form 3 | no change of form 1 into form 2 or 3 | CN(C)c1cc(CNCC(C)(C)C)c(O)c2c1CC1CC3C(N(C)C)C(O)=C(C(N)=O)C(=O)C3(O)C(O)=C1C2=O.Cc1ccc(S(=O)(=O)O)cc1 (stereo not drawn) [form 1 tosylate salt]

Source: patent US9227921B2, “Salts and polymorphs of a tetracycline compound” (Paratek Pharmaceuticals, Inc., priority 2008, dated 2016)
